In BindingDB's records for doi:10.7270/Q2QF8R8B (Pcmd, 2008) one finds IC50 data, which are given here for 40 molecules.

The target in this test is T1, Cathepsin G (Homo sapiens, UniProt P08311).
T1 sequence (P08311 whole entry): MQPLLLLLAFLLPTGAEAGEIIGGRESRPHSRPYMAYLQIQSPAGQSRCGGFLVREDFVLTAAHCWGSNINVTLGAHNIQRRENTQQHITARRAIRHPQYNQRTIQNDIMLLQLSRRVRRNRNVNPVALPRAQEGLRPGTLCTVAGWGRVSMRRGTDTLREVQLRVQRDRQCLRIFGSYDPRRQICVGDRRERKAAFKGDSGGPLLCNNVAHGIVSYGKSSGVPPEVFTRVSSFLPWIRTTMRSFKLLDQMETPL
Nature of the test: IC50 of CTSG protease blockers – biochemical, confirmation, dose response (AID 832).

`COc1ccc(C2C(C(=O)c3cccs3)C(=O)C(=O)N2c2nncs2)cc1` (stereo not given) displayed an IC50 greater than 50 µM.

`Cc1cc(C)cc(C(=O)n2cnnc2N)c1` came in with an IC50 of 3.88 µM.

`Cc1ccc(S(=O)(=O)n2nc(OC(=O)c3cccs3)cc2N)cc1` returned an IC50 of 8.07 µM.

Turning to `CCOC(=O)c1c(C)n(C(=O)c2ccco2)c(=O)n1C(=O)c1ccco1`, the midpoint of inhibition, the IC50, lay at 12 µM.

On to `C#CCOC(=O)c1ccccc1C(=O)n1nnc2ccccc21`, for which the IC50 worked out at 3.97 µM.

For `CCSc1ccccc1C(=O)n1nnc2ccccc21`, the IC50 is 9.8 µM.

As to `O=C(c1ccc2c(c1)OCO2)n1nnc2ccccc21`, the IC50 is 0.957 µM.

`COc1ccc(C(=O)n2nc(-c3ccc(C)cc3)nc2N)cc1OC` displayed an IC50 greater than 50 µM.

`O=C(c1csc2c1CCCC2)n1cccn1` [1-(4,5,6,7-tetrahydro-1-benzothien-3-ylcarbonyl)-1H-pyrazole] registered an IC50 of 3.61 µM.

With `O=C(CCSc1nccn1Cc1ccccc1)N1CCOCC1` [1-(4-morpholinyl)-3-[[1-(phenylmethyl)-2-imidazolyl]thio]-1-propanone], the concentration for half-maximal inhibition (IC50) was greater than 50 µM.

As for `CN1CC2(Cc3c1ccc1ccccc31)C(=O)OC(C)(C)OC2=O` [2',2',4-trimethylspiro[1,3-dihydrobenzo[f]quinoline-2,5'-1,3-dioxane]-4',6'-dione], the concentration for half-maximal inhibition (IC50) amounted to 23.3 µM.

Molecule `O=c1oc(-c2cccc(S(=O)(=O)N3CCOCC3)c2)nc2ccccc12` [2-(3-morpholin-4-ylsulfonylphenyl)-3,1-benzoxazin-4-one] showed a half-inhibitory concentration (IC50) of 4.05 µM.

`O=c1oc(-c2cccnc2)nc2ccccc12` [2-(3-pyridinyl)-3,1-benzoxazin-4-one] had an IC50 of 2.77 µM.

`O=c1oc(-c2ccco2)nc2ccccc12` [2-Furan-2-yl-benzo[d][1,3]oxazin-4-one] came in with an IC50 of 0.793 µM.

For the molecule `COC(=O)c1sc(N2C(=O)C(=O)C(C(=O)c3ccc(C)o3)C2c2ccc(F)cc2)nc1C` (stereo not given) [2-[2-(4-fluorophenyl)-4-hydroxy-3-[(5-methyl-2-furanyl)-oxomethyl]-5-oxo-2H-pyrrol-1-yl]-4-methyl-5-thiazolecarboxylic acid methyl ester], the IC50 was greater than 50 µM.

`COC(=O)c1ccccc1NC(=O)c1cc2sccc2n1C` [2-[(4-Methyl-4H-thieno[3,2-b]pyrrole-5-carbonyl)-amino]-benzoic acid methyl ester]: half-maximal inhibition (IC50) required 30.4 µM.

For `CCN1C(=O)c2ccc(-c3nc4ccccc4c(=O)o3)cc2C1=O` [2-ethyl-5-(4-keto-3,1-benzoxazin-2-yl)isoindoline-1,3-quinone], the IC50 is greater than 50 µM.

Take `CSc1nc(-c2ccco2)nn1C(=O)c1ccco1` [2-furanyl-[3-(2-furanyl)-5-(methylthio)-1,2,4-triazol-1-yl]methanone]: inhibition was half-maximal at 11.7 µM (IC50).

On to `Cc1nc2scc(-c3cccs3)c2c(=O)o1` [2-methyl-5-(2-thienyl)thieno[2,3-d][1,3]oxazin-4-one], for which the IC50 is greater than 50 µM.

On to `COc1ccc(S(=O)(=O)n2nc(OC(=O)c3cccs3)cc2N)cc1` [2-thiophenecarboxylic acid [5-amino-1-(4-methoxyphenyl)sulfonyl-3-pyrazolyl] ester], for which the IC50 was found to be 2.52 µM.

Molecule `COc1ccc2c(c1)CCc1c(C(=O)N3CCc4ccccc4C3)noc1-2` [3,4-dihydro-1H-isoquinolin-2-yl-(7-methoxy-4,5-dihydrobenz[g]indoxazen-3-yl)methanone] yielded an IC50 greater than 50 µM.

In the case of `CC(C)C(CC(=O)N1CCCCC1)C1CCOC(C)(C)C1` (stereo not given) [3-(2,2-dimethyl-4-oxanyl)-4-methyl-1-(1-piperidinyl)-1-pentanone], the IC50 is greater than 50 µM.

In the case of `O=C(c1noc2c1CCc1ccccc1-2)N1CCc2ccccc2C1` [3-(3,4-dihydroisoquinolin-2(1H)-ylcarbonyl)-4,5-dihydronaphtho[2,1-d]isoxazole], the IC50 turned out to be 19.6 µM.

The molecule `O=C(c1noc2c1CCc1ccccc1-2)N1CCCc2ccccc21` [3-(3,4-dihydroquinolin-1(2H)-ylcarbonyl)-4,5-dihydronaphtho[2,1-d]isoxazole] displayed an IC50 of 47.6 µM.

As for `O=C(c1noc2c1CCc1ccccc1-2)N1CCOCC1` [3-(morpholin-4-ylcarbonyl)-4,5-dihydronaphtho[2,1-d]isoxazole], the concentration for half-maximal inhibition (IC50) is greater than 50 µM.

`Cc1ccc(C(=O)n2cnnc2N)cc1C` [4-(3,4-dimethylbenzoyl)-4H-1,2,4-triazol-3-amine] showed an IC50 of 1.58 µM.

Molecule `COc1ccc(S(=O)(=O)n2nc(OC(=O)c3ccc(C)cc3)cc2N)cc1` [4-Methyl-benzoic acid 5-amino-1-(4-methoxy-benzenesulfonyl)-1H-pyrazol-3-yl ester] had an IC50 of 18.3 µM.

In the case of `CCOC(=O)c1ccc(NC(=O)CS(=O)(=O)c2cn(CC)c3ccccc23)cc1` [4-[[2-(1-ethylindol-3-yl)sulfonylacetyl]amino]benzoic acid ethyl ester], the IC50 was greater than 50 µM.

As for `Cc1nn(Cc2ccc(Cl)c(Cl)c2)c(C)c1NC(=O)c1cc(-c2ccc3c(c2)OCO3)on1` [5-(1,3-benzodioxol-5-yl)-N-[1-(3,4-dichlorobenzyl)-3,5-dimethyl-1H-pyrazol-4-yl]isoxazole-3-carboxamide], it took 18.6 µM to reach half-maximal inhibition (IC50).

Consider `COc1ccc(OC)c(-c2cc(C(=O)Nc3c(C)nn(Cc4ccccc4)c3C)no2)c1` [5-(2,5-dimethoxyphenyl)-N-[3,5-dimethyl-1-(phenylmethyl)-4-pyrazolyl]-3-isoxazolecarboxamide], for which it took 33 µM to reach half-maximal inhibition (IC50).

For `COc1ccccc1-c1cc(C(=O)NC(C)c2ccccc2)no1` (stereo not given) [5-(2-methoxyphenyl)-N-(1-phenylethyl)-1,2-oxazole-3-carboxamide], the IC50 came out at 21.8 µM.

As to `COc1ccccc1-c1cc(C(=O)Nc2cccnc2)no1` [5-(2-methoxyphenyl)-N-(3-pyridinyl)-3-isoxazolecarboxamide], the IC50 amounted to 43.2 µM.

Take `COc1ccccc1-c1cc(C(=O)NCc2ccccc2)no1` [5-(2-methoxyphenyl)-N-(phenylmethyl)-1,2-oxazole-3-carboxamide]: the IC50 worked out at 13.3 µM.

As for `COc1ccc(CNC(=O)c2cc(-c3ccc(OC)c(OC)c3)on2)cc1` [5-(3,4-dimethoxyphenyl)-N-(4-methoxybenzyl)isoxazole-3-carboxamide], the IC50 is greater than 50 µM.

The molecule `COc1cccc(-c2cc(C(=O)NCCc3ccccc3)no2)c1` [5-(3-methoxyphenyl)-N-(2-phenylethyl)-1,2-oxazole-3-carboxamide] had an IC50 greater than 50 µM.

In turn, `Cc1cnc(C(=O)Nc2ccccc2-c2ccc(C)o2)cn1` [5-Methyl-pyrazine-2-carboxylic acid [2-(5-methyl-furan-2-yl)-phenyl]-amide] had a half-inhibitory concentration (IC50) greater than 50 µM.

`Cc1ccsc1C=c1sc2ncnn2c1=O` [5-[(3-methyl-2-thienyl)methylene][1,3]thiazolo[3,2-b][1,2,4]triazol-6(5H)-one] came in with an IC50 of 4.66 µM.

Regarding `Cn1cnnc1SCc1ccc(C(=O)n2ncc(C#N)c2N)cc1` [5-amino-1-[4-[(4-methyl-1,2,4-triazol-3-yl)sulfanylmethyl]benzoyl]pyrazole-4-carbonitrile], the IC50 is 3.86 µM.

On to `Cc1cccc(-n2nnc(C(=O)Nc3ccc(F)cc3)c2N)c1` [5-amino-N-(4-fluorophenyl)-1-(3-methylphenyl)-1H-1,2,3-triazole-4-carboxamide], for which the concentration for half-maximal inhibition (IC50) is greater than 50 µM.

Regarding `O=C(NCc1cccs1)c1cc(-c2cccs2)on1` [5-thien-2-yl-N-(thien-2-ylmethyl)isoxazole-3-carboxamide], half-maximal inhibition (IC50) required 15.2 µM.

The term IC50 denotes the midpoint of a concentration-inhibition curve. Higher therefore signals lower potency.
